# From US7989639B2 (Novartis AG, priority 2006, dated 2011)
# Structures can show the parent of a compound that is named as a salt.
# Tests used:
# Type in all cases: physicochemical
# [1] = Thermogravimetric analysis (TGA) of the salts: loss on drying, desolvation and decomposition temperature; settings: for Tdecomposition: approximated by onset of first derivative of thermogravimetric curve vs. temperature, salt sample as obtained from the solvent/temperature; for Tdesolvation: value in brackets after LOD
# From the text: In addition, “loss on drying” (LOD) refers to weight loss determined between ambient and decomposition temperatures. The later is approximated by the onset of the first derivative of the thermogravimetric curve vs. temperature. […] Salt formation, stoichiometry, and the presence or absence of solvents is confirmed by observing the ^1H-NMR chemical shifts of the corresponding salt forming agents and reaction solvents (the tables contain one characteristic chemical shift for salt forming agents or solvents). […] The extent of protonation of the free base is assessed by the change in the chemical shift of the benzylic (Hbz) protons. […] Finally, “-” indicates a measurement not taken.
# A stoichiometric amount of acetic acid was subsequently added to the suspension. The mixture was stirred at either 60° C. or ambient temperature (where a clear solution formed, stirring continued at 4° C.). Solids were collected by filtration and analyzed by XRPD, TGA and in some instances ^1H-NMR.
# [2] = Hygroscopicity / moisture uptake observed on isolation of the salts; settings: observation on isolated solid / during filtration
# Description: A stoichiometric amount of sodium hydroxide was subsequently added to the suspension. The mixture was stirred at 50° C. Once a clear solution formed, stirring continued at 4° C. Solids were collected by filtration and analyzed by XRPD and TGA.
# It is noted that the initially formed yellow powder is a polymorph of the mesylate salt that contains more than the equimolar amount of methane sulfonic acid. […] Upon gentle heating to 40 or 50° C. and within 2 to 4 hours, the yellow powder converts to a white crystalline solid that contains the equimolar amount of the methane sulfonic acid. This salt is non-hygroscopic. It is also advised that addition of the methane sulfonic acid is done at ambient temperature and the temperature increased afterwards. It was observed that addition at higher temperature afforded the immediate precipitation of the salt as a soft and gummy material.
# [3] = Thermogravimetric analysis (TGA) of the salts: loss on drying, desolvation and decomposition temperature; settings: isothermal hold at 120° C. for 10 minutes
Tdecomposition [1],Structure (SMILES),further results
213.2 °C,"Cc1[nH]c2ccccc2c1CCNCc1ccc(/C=C/C(=O)NO)cc1 [hemi-fumarate salt form B, N-hydroxy-3-[4-[[[2-(2-methyl-1H-indol-3-yl)ethyl]amino]methyl]phenyl]-2E-2-propenamide]",–
162 °C,"Cc1[nH]c2ccccc2c1CCNCc1ccc(/C=C/C(=O)NO)cc1 [sulfate salt form SA, N-hydroxy-3-[4-[[[2-(2-methyl-1H-indol-3-yl)ethyl]amino]methyl]phenyl]-2E-2-propenamide]",–
–,"Cc1[nH]c2ccccc2c1CCNCc1ccc(/C=C/C(=O)NO)cc1 [oxalate salts, N-hydroxy-3-[4-[[[2-(2-methyl-1H-indol-3-yl)ethyl]amino]methyl]phenyl]-2E-2-propenamide]",Hygroscopicity [2]: appear to absorb water during filtration
147.9 °C,"Cc1[nH]c2ccccc2c1CCNCc1ccc(/C=C/C(=O)NO)cc1 [acetate salt form SA, N-hydroxy-3-[4-[[[2-(2-methyl-1H-indol-3-yl)ethyl]amino]methyl]phenyl]-2E-2-propenamide]",Tdesolvation [1]: 107.9 °C
–,"Cc1[nH]c2ccccc2c1CCNCc1ccc(/C=C/C(=O)NO)cc1 [mesylate salt form B, N-hydroxy-3-[4-[[[2-(2-methyl-1H-indol-3-yl)ethyl]amino]methyl]phenyl]-2E-2-propenamide]",Hygroscopicity ([2]; listed as mesylate salt white crystalline solid): non-hygroscopic
–,"Cc1[nH]c2ccccc2c1CCNCc1ccc(/C=C/C(=O)NO)cc1 [sodium salt, N-hydroxy-3-[4-[[[2-(2-methyl-1H-indol-3-yl)ethyl]amino]methyl]phenyl]-2E-2-propenamide]",Hygroscopicity [2]: highly hygroscopic
–,"Cc1[nH]c2ccccc2c1CCNCc1ccc(/C=C/C(=O)NO)cc1 [calcium salt, N-hydroxy-3-[4-[[[2-(2-methyl-1H-indol-3-yl)ethyl]amino]methyl]phenyl]-2E-2-propenamide]",Hygroscopicity [2]: less hygroscopic than the sodium or potassium salt
~160 °C,"Cc1[nH]c2ccccc2c1CCNCc1ccc(/C=C/C(=O)NO)cc1 [sulfate salt form A, N-hydroxy-3-[4-[[[2-(2-methyl-1H-indol-3-yl)ethyl]amino]methyl]phenyl]-2E-2-propenamide]",Hygroscopicity [2]: hygroscopic
235.5 °C,"Cc1[nH]c2ccccc2c1CCNCc1ccc(/C=C/C(=O)NO)cc1 [gentisate salt form A, N-hydroxy-3-[4-[[[2-(2-methyl-1H-indol-3-yl)ethyl]amino]methyl]phenyl]-2E-2-propenamide]",–
118.9 °C,Cc1[nH]c2ccccc2c1CCNCc1ccc(/C=C/C(=O)NO)cc1 [maleate salt polymorph from 2-propanol (yellow powder)] [N-hydroxy-3-[4-[[[2-(2-methyl-1H-indol-3-yl)ethyl]amino]methyl]phenyl]-2E-2-propenamide],–
–,"Cc1[nH]c2ccccc2c1CCNCc1ccc(/C=C/C(=O)NO)cc1 [acetate salt form A, N-hydroxy-3-[4-[[[2-(2-methyl-1H-indol-3-yl)ethyl]amino]methyl]phenyl]-2E-2-propenamide]",Tdecomposition ([1]; salt formed in AcOEt at 60 °C): 147.9 °C; Tdecomposition ([1]; salt formed in IPA at 60 °C): 148.7 °C; Tdesolvation [1]: 72.5 °C
170.9 °C,"Cc1[nH]c2ccccc2c1CCNCc1ccc(/C=C/C(=O)NO)cc1 [mesylate salt form A, N-hydroxy-3-[4-[[[2-(2-methyl-1H-indol-3-yl)ethyl]amino]methyl]phenyl]-2E-2-propenamide]",Hygroscopicity ([2]; listed as mesylate salt yellow powder): very highly hygroscopic
95 °C,"Cc1[nH]c2ccccc2c1CCNCc1ccc(/C=C/C(=O)NO)cc1 [hemi-malate salt form SA, N-hydroxy-3-[4-[[[2-(2-methyl-1H-indol-3-yl)ethyl]amino]methyl]phenyl]-2E-2-propenamide]",–
172.8 °C,"Cc1[nH]c2ccccc2c1CCNCc1ccc(/C=C/C(=O)NO)cc1 [mesylate salt forms A + B, N-hydroxy-3-[4-[[[2-(2-methyl-1H-indol-3-yl)ethyl]amino]methyl]phenyl]-2E-2-propenamide]",–
at 110 °C,"Cc1[nH]c2ccccc2c1CCNCc1ccc(/C=C/C(=O)NO)cc1 [benzoate salt form SA, N-hydroxy-3-[4-[[[2-(2-methyl-1H-indol-3-yl)ethyl]amino]methyl]phenyl]-2E-2-propenamide]",LOD % (isothermal) [3]: 5.2%
160.2 °C,"Cc1[nH]c2ccccc2c1CCNCc1ccc(/C=C/C(=O)NO)cc1 [benzoate salt form A, N-hydroxy-3-[4-[[[2-(2-methyl-1H-indol-3-yl)ethyl]amino]methyl]phenyl]-2E-2-propenamide]",–
>160 °C,"Cc1[nH]c2ccccc2c1CCNCc1ccc(/C=C/C(=O)NO)cc1 [hemi-tartarate salt form B, N-hydroxy-3-[4-[[[2-(2-methyl-1H-indol-3-yl)ethyl]amino]methyl]phenyl]-2E-2-propenamide]",–
150 °C,"Cc1[nH]c2ccccc2c1CCNCc1ccc(/C=C/C(=O)NO)cc1 [maleate salt form HA, N-hydroxy-3-[4-[[[2-(2-methyl-1H-indol-3-yl)ethyl]amino]methyl]phenyl]-2E-2-propenamide]",–
–,"Cc1[nH]c2ccccc2c1CCNCc1ccc(/C=C/C(=O)NO)cc1 [zinc salt, N-hydroxy-3-[4-[[[2-(2-methyl-1H-indol-3-yl)ethyl]amino]methyl]phenyl]-2E-2-propenamide]",Hygroscopicity [2]: less hygroscopic than the sodium or potassium salt
232.3 °C,"Cc1[nH]c2ccccc2c1CCNCc1ccc(/C=C/C(=O)NO)cc1 [hydrochloride salt form A, N-hydroxy-3-[4-[[[2-(2-methyl-1H-indol-3-yl)ethyl]amino]methyl]phenyl]-2E-2-propenamide]",–
–,"Cc1[nH]c2ccccc2c1CCNCc1ccc(/C=C/C(=O)NO)cc1 [potassium salt, N-hydroxy-3-[4-[[[2-(2-methyl-1H-indol-3-yl)ethyl]amino]methyl]phenyl]-2E-2-propenamide]",Hygroscopicity [2]: highly hygroscopic
159.8 °C,"Cc1[nH]c2ccccc2c1CCNCc1ccc(/C=C/C(=O)NO)cc1 [hemi-fumarate salt form HA, N-hydroxy-3-[4-[[[2-(2-methyl-1H-indol-3-yl)ethyl]amino]methyl]phenyl]-2E-2-propenamide]",–
dec. at 100 °C,"Cc1[nH]c2ccccc2c1CCNCc1ccc(/C=C/C(=O)NO)cc1 [benzoate salt form SB, N-hydroxy-3-[4-[[[2-(2-methyl-1H-indol-3-yl)ethyl]amino]methyl]phenyl]-2E-2-propenamide]",LOD % (isothermal) [3]: 6.3%
155.8 °C,"Cc1[nH]c2ccccc2c1CCNCc1ccc(/C=C/C(=O)NO)cc1 [hemi-succinate salt form SA, N-hydroxy-3-[4-[[[2-(2-methyl-1H-indol-3-yl)ethyl]amino]methyl]phenyl]-2E-2-propenamide]",Tdesolvation [1]: (90.6) (2- ° C.
–,"Cc1[nH]c2ccccc2c1CCNCc1ccc(/C=C/C(=O)NO)cc1 [hemi-malonate salt form A, N-hydroxy-3-[4-[[[2-(2-methyl-1H-indol-3-yl)ethyl]amino]methyl]phenyl]-2E-2-propenamide]",Tdecomposition ([1]; salt prepared in EtOH): 169.5 °C; Tdecomposition ([1]; salt prepared in IPA): 174.1 °C
179.6 °C,"Cc1[nH]c2ccccc2c1CCNCc1ccc(/C=C/C(=O)NO)cc1 [phosphate salt form HA, N-hydroxy-3-[4-[[[2-(2-methyl-1H-indol-3-yl)ethyl]amino]methyl]phenyl]-2E-2-propenamide]",–
